Source: the supplement of paper PMC10307832

Key:
Test in all cases: relative viability (nuclei count vs DMSO), 5 days (fraction); higher = more cells survive
Dasatinib + Alpelisib = compound: Cc1nc(Nc2ncc(C(=O)Nc3c(C)cccc3Cl)s2)cc(N2CCN(CCO)CC2)n1 [Dasatinib] + Cc1nc(NC(=O)N2CCC[C@H]2C(N)=O)sc1-c1ccnc(C(C)(C)C(F)(F)F)c1 [Alpelisib] (partner 2 µM)
How it was run: (§1)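 For relative viability, nuclei counts in treated wells were divided by those in vehicle wells. Lung cancer cell lines had been pin-tool dosed in 1536-well plates the day after seeding and cultured for 5 days, then fixed and stained in one step (final 0.05% Triton X-100, 1% formaldehyde, 1 ug/ml Hoechst) and imaged at 4×. Doses were one drug alone or a fixed anchor-drug dose plus five library-drug doses (not always all listed) in √10 steps, and values are duplicate-plate medians.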

XMD13-2 + OSI-027 = compound: C1CC1C(=O)NC2=NNC3=C2C=CC(=C3)C4=CC(=CC=C4)C(=O)NC5CC5 [XMD13-2] + COc1cccc2cc(-c3nc([C@H]4CC[C@H](C(=O)O)CC4)n4ncnc(N)c34)[nH]c12 [OSI-027] (partner 0.5 µM)
How it was run: as §1

ALW-II-49-7 + Olaparib = compound: Cc1ccc(C(=O)Nc2cccc(C(F)(F)F)c2)cc1Nc1cncc(C(N)=O)c1 [ALW-II-49-7] + O=C(c1cc(Cc2n[nH]c(=O)c3ccccc23)ccc1F)N1CCN(C(=O)C2CC2)CC1 [Olaparib] (partner 8 µM)
How it was run: as §1

Dasatinib + AZD7762 = compound: Cc1nc(Nc2ncc(C(=O)Nc3c(C)cccc3Cl)s2)cc(N2CCN(CCO)CC2)n1 [Dasatinib] + NC(=O)Nc1cc(-c2cccc(F)c2)sc1C(=O)N[C@H]1CCCNC1 [AZD7762] (partner 0.2 µM)
How it was run: as §1

Cell Line | relative viability (Dasatinib + Alpelisib; first compound 0.005 µM) | relative viability (Dasatinib + Alpelisib; first compound 0.01581 µM) | relative viability (Dasatinib + Alpelisib; first compound 0.05 µM) | relative viability (Dasatinib + Alpelisib; first compound 0.1581 µM) | relative viability (Dasatinib + Alpelisib; first compound 0.5 µM) | relative viability (XMD13-2 + OSI-027; first compound 0.05 µM) | relative viability (XMD13-2 + OSI-027; first compound 0.1581 µM) | relative viability (XMD13-2 + OSI-027; first compound 0.5 µM) | relative viability (XMD13-2 + OSI-027; first compound 1.581 µM) | relative viability (XMD13-2 + OSI-027; first compound 5 µM) | relative viability (ALW-II-49-7 + Olaparib; first compound 0.08 µM) | relative viability (ALW-II-49-7 + Olaparib; first compound 0.253 µM) | relative viability (ALW-II-49-7 + Olaparib; first compound 0.8 µM) | relative viability (ALW-II-49-7 + Olaparib; first compound 2.53 µM) | relative viability (ALW-II-49-7 + Olaparib; first compound 8 µM) | relative viability (Dasatinib + AZD7762; first compound 0.005 µM) | relative viability (Dasatinib + AZD7762; first compound 0.01581 µM) | relative viability (Dasatinib + AZD7762; first compound 0.05 µM) | relative viability (Dasatinib + AZD7762; first compound 0.1581 µM) | relative viability (Dasatinib + AZD7762; first compound 0.5 µM)
201T | 0.95 | 0.922 | 0.845 | 0.654 | 0.338 | 0.95 | 0.731 | 0.854 | 0.701 | 0.723 | 0.846 | 0.844 | 0.844 | 0.873 | 0.69 | 0.848 | 0.635 | 0.493 | 0.455 | 0.302
A549 | 0.65 | 0.479 | 0.558 | 0.432 | 0.139 | – | – | – | – | – | 0.407 | 0.368 | 0.222 | 0.344 | 0.263 | – | – | – | – | –
A-427 | 0.961 | 1.06 | 1 | 0.573 | 0.533 | 0.462 | 0.354 | 0.489 | 0.444 | 0.355 | 0.673 | 0.831 | 0.81 | 0.672 | 0.71 | 0.72 | 0.745 | 0.536 | 0.52 | 0.519
ABC-1 | 0.978 | 0.776 | 0.888 | 0.714 | 0.571 | 0.693 | 0.486 | 0.572 | 0.427 | 0.368 | 0.636 | 0.828 | 0.744 | 0.838 | 0.921 | 0.74 | 0.689 | 0.758 | 0.747 | 0.383
BEN | 0.857 | 0.536 | 0.611 | 0.342 | 0.365 | 0.309 | 0.276 | 0.312 | 0.291 | 0.327 | 1.12 | 1.11 | 1.18 | 0.548 | 0.98 | 0.747 | 0.558 | 0.483 | 0.402 | 0.43
CAL-12T | 1.15 | 1.03 | 1.62 | 1.13 | 0.355 | 0.803 | 0.585 | 0.549 | 0.426 | 0.577 | 0.797 | 0.644 | 0.773 | 0.753 | 0.719 | 0.637 | 0.584 | 0.681 | 0.613 | 0.538
COR-L23 | 0.591 | 0.5 | 0.523 | 0.347 | 0.216 | 0.915 | 0.78 | 0.838 | 0.711 | 0.864 | 0.327 | 0.343 | 0.327 | 0.313 | 0.292 | – | – | – | – | –
COR-L 105 | 0.671 | 0.486 | 0.715 | 0.452 | 0.209 | 0.83 | 0.658 | 0.668 | 0.66 | 0.707 | 0.646 | 0.626 | 0.781 | 0.663 | 0.578 | – | – | – | – | –
Calu-6 | 0.801 | 0.665 | 0.731 | 0.613 | 0.576 | – | – | – | – | – | 0.588 | 0.521 | 0.576 | 0.45 | 0.417 | – | – | – | – | –
